Non-standard residues stand in square brackets, D forms with d. Residues, ends and D or L forms follow the SMILES beside them. *: point of attachment. sY = N[C@@H](Cc1ccc(OS(=O)(=O)O)cc1)C(=O)O; X1 = O=C(O)C[C@H](NS(=O)(=O)O)C(=O)*; NMeNle = CCCC[C@H](NC)C(=O)O; Nle = CCCC[C@H](N)C(=O)O
Experiments:
[1] = biological target: T1, [^125 I] CCK-8 binding sites (CCK receptor), Rat Pancreas (Rattus norvegicus, UniProt P30551); assay: Inhibition of [125I] CCK-8 binding, rat pancreas
T1 construct: from tissue; host or cells: rat pancreas
T1 sequence (P30551 1-444): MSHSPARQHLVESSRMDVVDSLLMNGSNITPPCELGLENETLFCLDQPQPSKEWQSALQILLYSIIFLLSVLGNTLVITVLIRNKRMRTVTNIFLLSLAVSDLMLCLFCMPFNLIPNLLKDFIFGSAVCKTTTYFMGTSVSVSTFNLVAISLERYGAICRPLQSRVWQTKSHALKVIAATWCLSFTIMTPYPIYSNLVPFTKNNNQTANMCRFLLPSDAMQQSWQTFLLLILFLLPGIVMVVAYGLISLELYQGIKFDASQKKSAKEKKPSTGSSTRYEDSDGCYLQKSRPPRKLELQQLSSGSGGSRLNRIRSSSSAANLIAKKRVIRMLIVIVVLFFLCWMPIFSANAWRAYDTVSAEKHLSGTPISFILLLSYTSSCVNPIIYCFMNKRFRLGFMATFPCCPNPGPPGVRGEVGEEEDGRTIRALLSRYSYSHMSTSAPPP

[2] = biological target: T2, [^125 I] CCK-8 binding sites (CCK receptor), Guinea Pig Pancreas (Cavia porcellus, UniProt Q63931); assay: Inhibition of [125I] CCK-8 binding, guinea pig pancreas; conditions: read-out: Guinea Pig Pancreas IV50
T2 construct: from tissue; host or cells: guinea pig pancreas
T2 sequence (Q63931 1-430): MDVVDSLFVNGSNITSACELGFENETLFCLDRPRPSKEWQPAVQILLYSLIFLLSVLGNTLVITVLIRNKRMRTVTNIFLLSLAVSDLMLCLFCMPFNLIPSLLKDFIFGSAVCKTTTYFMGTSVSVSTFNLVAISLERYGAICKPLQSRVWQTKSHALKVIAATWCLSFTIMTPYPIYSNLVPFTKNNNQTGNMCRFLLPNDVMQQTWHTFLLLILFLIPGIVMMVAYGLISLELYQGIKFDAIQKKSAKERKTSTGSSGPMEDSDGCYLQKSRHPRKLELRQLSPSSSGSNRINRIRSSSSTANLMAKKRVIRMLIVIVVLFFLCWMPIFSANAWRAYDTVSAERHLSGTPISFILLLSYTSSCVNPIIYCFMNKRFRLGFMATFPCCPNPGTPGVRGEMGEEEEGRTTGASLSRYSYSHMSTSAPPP

[3] = biological target: T3, [^125 I] CCK-8 binding sites (CCK receptor), Rat Brain (Rattus norvegicus, UniProt P30553); assay: Inhibition of [125I] CCK-8 binding, rat brain; conditions: for Ratio Pancreas/Brain Rat: IC50 pancreas / IC50 brain
T3 construct: from tissue; host or cells: rat brain
T3 sequence (P30553 1-452): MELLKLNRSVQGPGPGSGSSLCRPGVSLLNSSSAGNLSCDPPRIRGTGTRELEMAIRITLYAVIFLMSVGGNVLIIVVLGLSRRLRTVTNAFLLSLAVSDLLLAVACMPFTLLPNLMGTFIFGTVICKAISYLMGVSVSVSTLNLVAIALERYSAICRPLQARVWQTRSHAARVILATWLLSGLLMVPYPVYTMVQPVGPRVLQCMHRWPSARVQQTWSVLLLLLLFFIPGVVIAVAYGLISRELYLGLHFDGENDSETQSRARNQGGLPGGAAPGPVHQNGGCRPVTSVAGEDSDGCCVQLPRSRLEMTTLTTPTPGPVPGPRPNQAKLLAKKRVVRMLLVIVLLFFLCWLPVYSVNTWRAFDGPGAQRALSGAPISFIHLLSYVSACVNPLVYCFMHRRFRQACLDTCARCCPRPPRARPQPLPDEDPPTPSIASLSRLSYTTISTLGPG

[4] = system: [^125 I] CCK-8 binding sites (CCK receptor), Guinea Pig Brain; assay: Inhibition of [125I] CCK-8 binding, guinea pig brain; conditions: for Ratio Pancreas/Brain (Guinea Pig): value in brackets, IC50 pancreas / IC50 brain; for IC50: inhibition of [125I] CCK-8 binding, guinea pig brain

Row | Structure (SMILES) | IC50 [1] | IC50 [2] | IC50 [3] | Ratio Pancreas/Brain Rat [3] | Ratio Pancreas/Brain (Guinea Pig) [4] | IC50 [4]
1 | CSCC[C@H](NC(=O)[C@H](Cc1ccc(OS(=O)(=O)O)cc1)NC(=O)[C@@H](N)CC(=O)O)C(=O)NCC(=O)N[C@@H](Cc1c[nH]c2ccccc12)C(=O)N[C@@H](CCSC)C(=O)N[C@@H](CC(=O)O)C(=O)N[C@@H](Cc1ccccc1)C(N)=O [CCK-8, Asp-Tyr-(SO3^-)-Met-Gly-Trp-Met-Asp-Phe-NH2, reference compound] | 0.129 nM | – | – | – | – | –
2 | CCCC[C@@H](C(=O)N[C@@H](CC(=O)O)C(=O)N[C@@H](Cc1ccccc1)C(N)=O)N(C)C(=O)[C@H](Cc1c[nH]c2ccccc12)NC(=O)CN [Compound 1, H-Gly-Trp-N-MeNle-Asp-Phe-NH2] (H-GW[NMeNle]DF-NH2) | > 10000 nM | 8000 nM | 4.67 nM | – | – | –
3 | CCCC[C@@H](C(=O)N[C@@H](CC(=O)O)C(=O)N[C@@H](Cc1ccccc1)C(N)=O)N(C)C(=O)[C@H](Cc1c[nH]c2ccccc12)NC(=O)CNC(=O)[C@H](CCCC)N(C)C(=O)[C@H](Cc1ccc(O)cc1)NC(=O)[C@@H](N)CC(=O)O [Compound 2, H-Asp-Tyr-N-MeNle-Gly-Trp-N-MeNle-Asp-Phe-NH2] | 1030 nM | 958 nM | 0.131 nM | 7,863 | 4146 | 0.23 nM
4 | CCCC[C@@H](C(=O)N[C@@H](CC(=O)O)C(=O)N[C@@H](Cc1ccccc1)C(N)=O)N(C)C(=O)[C@H](Cc1c[nH]c2ccccc12)NC(=O)CNC(=O)[C@H](CCCC)N(C)C(=O)[C@H](Cc1ccc(OS(=O)(=O)O)cc1)NC(=O)[C@H](CC(=O)O)NS(=O)(=O)O [Compound 3, H-Asp-Tyr-N-MeNle-Gly-Trp-N-MeNle-Asp-Phe-NH2 Bis-SO3^θ] (X1-[sY][NMeNle]GW[NMeNle]DF-NH2; N-terminus assumed) | 0.46 nM | – | 1.41 nM | 0.29 | – | –
5 | CCCC[C@H](NC(=O)[C@H](Cc1c[nH]c2ccccc12)NC(=O)CNC(=O)[C@H](CCCC)N(C)C(=O)[C@H](Cc1ccc(O)cc1)NC(=O)[C@@H](N)CC(=O)O)C(=O)N[C@@H](CC(=O)O)C(=O)N[C@@H](Cc1ccccc1)C(N)=O [Compound 4, H-Asp-Tyr-N-MeNle-Gly-Trp-Nle-Asp-Phe-NH2] | 46.7 nM | – | 1.45 nM | 32.2 | – | –
6 | CCCC[C@H](NC(=O)[C@H](Cc1ccc(O)cc1)NC(=O)[C@@H](N)CC(=O)O)C(=O)NCC(=O)N[C@@H](Cc1c[nH]c2ccccc12)C(=O)N(C)[C@@H](CCCC)C(=O)N[C@@H](CC(=O)O)C(=O)N[C@@H](Cc1ccccc1)C(N)=O [Compound 5, H-Asp-Tyr-Nle-Gly-Trp-N-MeNle-AsP-Phe-NH2] | 170 nM | – | 976 nM | 0.17 | – | –
7 | CCCC[C@H](NC(=O)[C@H](Cc1c[nH]c2ccccc12)NC(=O)CNC(=O)[C@@H](NC(=O)[C@H](Cc1ccc(O)cc1)NC(=O)[C@@H](N)CC(=O)O)C(C)C)C(=O)N[C@@H](CC(=O)O)C(=O)N[C@@H](Cc1ccccc1)C(N)=O [Compound 6, H-Asp-Tyr-Val-Gly-Trp-Nle-Asp-Phe-NH2] | 10.6 nM | – | 0.318 nM | 33.5 | – | –
8 | CCCC[C@H](NC(=O)[C@H](Cc1c[nH]c2ccccc12)NC(=O)CNC(=O)[C@H](NC(=O)[C@H](Cc1ccc(O)cc1)NC(=O)[C@@H](N)CC(=O)O)C(C)C)C(=O)N[C@@H](CC(=O)O)C(=O)N[C@@H](Cc1ccccc1)C(N)=O [Compound 7, H-Asp-Tyr-D-Val-Gly-Trp-Nle-Asp-Phe-NH2] | 521 nM | – | 1.26 nM | 413 | – | –
9 | CCCC[C@H](NC(=O)[C@H](Cc1ccc(O)c(O)c1)NC(=O)[C@@H](N)CC(=O)O)C(=O)NCC(=O)N[C@@H](Cc1c[nH]c2ccccc12)C(=O)N[C@@H](CCCC)C(=O)N[C@@H](CC(=O)O)C(=O)N[C@@H](Cc1ccccc1)C(N)=O [Compound 8, H-Asp-Dopa-Nle-Gly-Trp-Nle-Asp-Phe-NH2] | 0.975 nM | – | 9.7 nM | 0.0010 | – | –
10 | CCCC[C@H](NC(=O)[C@H](Cc1c[nH]c2ccccc12)NC(=O)CNC(=O)[C@H](CCCC)N(C)C(=O)[C@H](Cc1ccc(OS(=O)(=O)O)cc1)NC(=O)[C@H](CC(=O)O)NS(=O)(=O)O)C(=O)N[C@@H](CC(=O)O)C(=O)N[C@@H](Cc1ccccc1)C(N)=O [Compound 9, H-Asp-Tyr-N-MeNle-Gly-Trp-Nle-Asp-Phe-NH2 Bis-SO3 θ] (X1-[sY][NMeNle]GW[Nle]DF-NH2; N-terminus assumed) | – | 29100 nM | – | – | 9099 | 3.19 nM
11 | CCCC[C@H](NC(=O)[C@H](Cc1ccc(OS(=O)(=O)O)cc1)NC(=O)[C@H](CC(=O)O)NS(=O)(=O)O)C(=O)NCC(=O)N[C@@H](Cc1c[nH]c2ccccc12)C(=O)N(C)[C@@H](CCCC)C(=O)N[C@@H](CC(=O)O)C(=O)N[C@@H](Cc1ccccc1)C(N)=O [Compound 10, H-Asp-Tyr-Nle-Gly-Trp-N-MeNle-Asp-Phe-NH2 -Bis-SO3θ] (X1-[sY][Nle]GW[NMeNle]DF-NH2; N-terminus assumed) | 1.39 nM | – | 0.496 nM | 2.81 | – | –
12 | CCCC[C@H](NC(=O)[C@H](Cc1c[nH]c2ccccc12)NC(=O)CNC(=O)[C@@H](NC(=O)[C@H](Cc1ccc(OS(=O)(=O)O)cc1)NC(=O)[C@H](CC(=O)O)NS(=O)(=O)O)C(C)C)C(=O)N[C@@H](CC(=O)O)C(=O)N[C@@H](Cc1ccccc1)C(N)=O [Compound 11, H-Asp-Tyr-Val-Gly-Trp-Nle-Asp-Phe-NH2 Bis-SO3 θ] (X1-[sY]VGW[Nle]DF-NH2; N-terminus and C-terminus assumed) | – | – | – | 33.46 | – | –
13 | CCCC[C@H](NC(=O)[C@H](Cc1c[nH]c2ccccc12)NC(=O)CNC(=O)[C@H](NC(=O)[C@H](Cc1ccc(OS(=O)(=O)O)cc1)NC(=O)[C@H](CC(=O)O)NS(=O)(=O)O)C(C)C)C(=O)N[C@@H](CC(=O)O)C(=O)N[C@@H](Cc1ccccc1)C(N)=O [Compound 12, H-Asp-Tyr-D-Val-Gly-Trp-Nle-Asp-Phe-NH2 Bis-SO3 θ] (X1-[sY][dV]GW[Nle]DF-NH2; N-terminus and C-terminus assumed) | – | – | – | 39.5 | – | –
